Here are results for 10 compounds from paper PMC6696179, “Structural Optimization and Structure–Activity Relationship of 4-Thiazolidinone Derivatives as Novel Inhibitors of Human Dihydroorotate Dehydrogenase” (Molecules, 2019).

Usually inhibition stands for the change of the read-out against control, counted positive when it falls. By IC50 is commonly meant the point on the concentration scale where inhibition reaches its midpoint. Lower therefore signals greater potency in that assay. Broadly, the melting point is the temperature of the solid-liquid transition.

One series has as its target T1, hDHODH (Homo sapiens, UniProt Q02127).
T1 construct: The plasmid pET-19b–hDHODH (Met30-Arg396) was transformed; inferred from the pET-19b vector and from purification on a chelating column with imidazole elution) (N); made in house; host or cells: E. coli BL21 (DE3)
Briefly: hDHODH enzyme inhibition assay (DCIP/UQ0, dihydroorotate-initiated).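 As to all read-outs here: recombinant hDHODH (Met30–Arg396) in HEPES pH 8.0 buffer with KCl and Triton X-100, reaction started by 500 µM dihydroorotate, inhibition from rate with inhibitor relative to uninhibited rate.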 The note with it: for inhibition at 10 µM: compound at 10 µM, 10 nM purified hDHODH; for IC50: three independent tests, determined if inhibition at 10 μM was greater than 50%. In kind it is biochemical.

T1 sequence (Q02127 29-395 limits assumed): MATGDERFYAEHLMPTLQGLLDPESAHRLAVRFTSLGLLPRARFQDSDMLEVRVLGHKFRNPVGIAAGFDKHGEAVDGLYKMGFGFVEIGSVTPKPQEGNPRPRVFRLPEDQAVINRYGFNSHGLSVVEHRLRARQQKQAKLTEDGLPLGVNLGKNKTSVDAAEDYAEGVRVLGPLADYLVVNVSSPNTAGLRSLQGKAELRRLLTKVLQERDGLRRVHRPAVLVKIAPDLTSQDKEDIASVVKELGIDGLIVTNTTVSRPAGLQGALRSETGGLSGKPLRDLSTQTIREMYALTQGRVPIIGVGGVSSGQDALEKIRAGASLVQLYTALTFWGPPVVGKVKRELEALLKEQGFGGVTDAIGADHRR
Experimental for hDHODH: The purified hDHODH was diluted into a final concentration of 10 nM with the assay buffer contained 50 mM HEPES pH 8.0, 150 mM KCl, 0.1% Triton X-100. […] The dihydroorotate was added to a final concentration of 500 μM to initiate the reaction. […] Inhibition rate was calculated from (1-Vi/V0) × 100. For the determination of the IC50 values, eight to nine different concentrations were applied. Each inhibitor concentration point was tested in triplicate. IC50 values were calculated using the sigmoidal fitting option of the program Origin 8.0.

As for `COC(=O)/C(C#N)=C1\SCC(=O)N1c1ccc(C(=O)Nc2ccc(OC)cc2)cc1` [Compound 36, Methyl (Z)-2-cyano-2-(3-(4-((4-methoxyphenyl)carbamoyl)phenyl)-4-oxothiazolidin-2-ylidene)acetate], the melting point lay in the range of 268.9 to 269.7 °C. On hDHODH, this compound returned an inhibition at 10 µM of 55.4% and an IC50 of 5.01 µM.

`COC(=O)/C(C#N)=C1\SCC(=O)N1c1ccc(C(=O)Nc2ccc(C(C)(C)C)cc2)cc1` [Compound 37, Methyl (Z)-2-(3-(4-((4-(tert-butyl)phenyl)carbamoyl)phenyl)-4-oxothiazolidin-2-ylidene)-2-cyanoacetate] had a melting point of 256.1 to 257 °C. For the same compound, on hDHODH, the inhibition at 10 µM came to 75.6% and the IC50 is 1.45 µM.

As for `COC(=O)/C(C#N)=C1\SCC(=O)N1c1ccc(C(=O)Nc2ccc3ccccc3c2)cc1` [Compound 38, Methyl (Z)-2-cyano-2-(3-(4-(naphthalen-2-ylcarbamoyl)phenyl)-4-oxothiazolidin-2-ylidene)acetate], the melting point lay in the range of 285 to 286 °C. Further, at hDHODH, the “hDHODH inhibitory activity in words” value is “inactive”, the inhibition at 10 µM came out at 38.2% and the IC50 was greater than 10 µM.

Regarding `COC(=O)/C(C#N)=C1\SCC(=O)N1c1ccc(C(=O)NCc2ccccc2)cc1` [Compound 39, Methyl (Z)-2-(3-(4-(benzylcarbamoyl)phenyl)-4-oxothiazolidin-2-ylidene)-2-cyanoacetate], the melting point is 117.3 to 118.1 °C. On hDHODH, the “hDHODH inhibitory activity in words” value is “inactive”, the inhibition at 10 µM was found to be 39.9% and the IC50 was greater than 10 µM.

`COC(=O)/C(C#N)=C1\SCC(=O)N1c1ccc(C(=O)Nc2ccccc2C(=O)O)cc1` [Compound 40, (Z)-2-(4-(2-(1-Cyano-2-methoxy-2-oxoethylidene)-4-oxothiazolidin-3-yl)benzamido)benzoic acid]: the melting point fell in the range of 261.8 to 262.5 °C. Further, on hDHODH, 10 µM produced 34.5% inhibition and the IC50 is greater than 10 µM.

With `COC(=O)/C(C#N)=C1\SCC(=O)N1c1ccc(C(=O)Nc2cccc(C(=O)O)c2)cc1` [Compound 41, (Z)-3-(4-(2-(1-Cyano-2-methoxy-2-oxoethylidene)-4-oxothiazolidin-3-yl)benzamido)benzoic acid], the melting point lay within 205.7 to 206.6 °C. At hDHODH, this compound returned an inhibition at 10 µM of 23.5% and an IC50 greater than 10 µM.

For `COC(=O)/C(C#N)=C1\SCC(=O)N1c1ccc(C(=O)NCc2ccccc2C(=O)O)cc1` [Compound 42, (Z)-2-((4-(2-(1-cyano-2-methoxy-2-oxoethylidene)-4-oxothiazolidin-3-yl)benzamido)methyl)-benzoic acid], the melting point was 217.3 to 218.1 °C. For the same compound, at hDHODH, the inhibition at 10 µM amounted to 36.8% and the IC50 was greater than 10 µM.

As for `COC(=O)/C(C#N)=C1\SCC(=O)N1c1ccc(C(=O)NCc2cccc(C(=O)O)c2)cc1` [Compound 43, (Z)-3-((4-(2-(1-cyano-2-methoxy-2-oxoethylidene)-4-oxothiazolidin-3-yl)benzamido)methyl) benzoic acid], the melting point is 205.7 to 206.6 °C. Also, at hDHODH, the inhibition at 10 µM stood at 44% and the IC50 was greater than 10 µM.

In turn, `COC(=O)/C(C#N)=C1\SCC(=O)N1c1ccc(C(=O)Nc2ccc(C(C)(C)C)c(C(=O)O)c2)cc1` [Compound 44, (Z)-2-(tert-butyl)-5-(4-(2-(1-cyano-2-methoxy-2-oxoethylidene)-4-oxothiazolidin-3-yl)benzamido)benzoic acid] displayed a melting point of 328.1 to 328.9 °C. Besides, at hDHODH, the inhibition at 10 µM is 30.3% and the concentration for half-maximal inhibition (IC50) is greater than 10 µM.

As to `COC(=O)/C(C#N)=C1\SCC(=O)N1c1ccc(C(=O)Nc2ccc3c(C(C)=O)cccc3c2)cc1` [Compound 45, Methyl (Z)-2-(3-(4-((5-acetylnaphthalen-2-yl)carbamoyl)phenyl)-4-oxothiazolidin-2-ylidene)-2-cyanoacetate], the melting point lay within 275 to 275.8 °C. In addition, at hDHODH, the inhibition at 10 µM stood at 42.2% and the IC50 is greater than 10 µM.
